The text below walks through data of US9440982B2 (Eolas Therapeutics, Inc., priority 2012, dated 2016).

Where only a bound is given, the exact number is not on record here.

One data set has as its target T1, OX2 (Homo sapiens, UniProt O43614).
T1 construct: expressed in transfected cells; host or cells: CHO (CHO-OX2, kept under selection antibiotic)
T1 sequence (O43614 1-444): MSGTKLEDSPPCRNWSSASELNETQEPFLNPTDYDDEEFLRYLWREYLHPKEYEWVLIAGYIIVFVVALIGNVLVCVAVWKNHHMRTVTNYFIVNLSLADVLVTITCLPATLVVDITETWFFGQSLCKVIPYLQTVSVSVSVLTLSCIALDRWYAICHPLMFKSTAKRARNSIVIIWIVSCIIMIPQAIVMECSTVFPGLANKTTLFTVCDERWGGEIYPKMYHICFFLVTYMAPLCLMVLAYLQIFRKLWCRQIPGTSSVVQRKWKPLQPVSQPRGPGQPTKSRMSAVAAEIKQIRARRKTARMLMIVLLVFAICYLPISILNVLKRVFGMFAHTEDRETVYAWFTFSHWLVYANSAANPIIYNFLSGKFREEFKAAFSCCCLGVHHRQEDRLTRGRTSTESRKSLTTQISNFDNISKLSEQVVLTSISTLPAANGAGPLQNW
In words: Orexin receptor cell-based functional assay, [Ca2+]i by FLIPR, CHO-OX2 cells. The following applies: [Ca2+]i by FLIPR, antagonist dose-range 0.1 nM-10 μM, EC90 of OXA, read-out: OX2. How it is done:
Measurement of [Ca^2+]i using a FLIPR: CHO—OX1 or CHO—OX2 cells are seeded into black-walled clear-base 384-well plates (Costar) at a density of 20,000 cells per well in F12-K medium supplemented with 10% FBS and selection antibiotic (500 ug/ml G418 or 15 ug/ml Blasticidin) and cultured overnight. The cells are incubated with equal volume of calcium4 loading buffer (Molecular Devices, Inc.) containing 2.5 mM probenecid at 37° C. for 30 min, followed by putative OX1 or OX2 receptor antagonists (dose-range 0.1 nM-10 μM) for another 30 min.
The cells are incubated with equal volume of calcium6 loading buffer (Molecular Devices, Inc.) containing 2.5 mM probenecid at 37° C. for 2 h, followed by test compounds (dose-range 0.1 nM-10 μM) for another 30 min.

The target of another data set is T2, CYP3A4 (Homo sapiens, UniProt P08684).
T2 construct: pre-incubated with human liver microsomes and NADPH; from tissue; host or cells: human liver microsomes
In words: Cytochrome P450 inhibition assay (midazolam hydroxylation). Format: in vitro ADME. As to conditions: human, human liver microsomes, probe midazolam (hydroxylation to 1′-hydroxymidazolam), 10 μM test compound, midazolam at approximately its Km. In a few lines: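 Human liver microsomes; CYP3A4 activity as midazolam 1′-hydroxylation with substrate near Km, with or without 10 μM test compound, read as percent inhibition. For time-dependent inhibition, parallel samples were preincubated 30 min with NADPH before substrate, and percent inhibition compared with non-preincubated samples.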
In general terms: Liver microsomes are a subcellular fraction often used to study metabolism.

In a further data set the target is T3, OX1 (Homo sapiens, UniProt O43613).
T3 construct: expressed in transfected cells; host or cells: CHO (CHO-OX1, kept under selection antibiotic)
T3 sequence (O43613 1-425): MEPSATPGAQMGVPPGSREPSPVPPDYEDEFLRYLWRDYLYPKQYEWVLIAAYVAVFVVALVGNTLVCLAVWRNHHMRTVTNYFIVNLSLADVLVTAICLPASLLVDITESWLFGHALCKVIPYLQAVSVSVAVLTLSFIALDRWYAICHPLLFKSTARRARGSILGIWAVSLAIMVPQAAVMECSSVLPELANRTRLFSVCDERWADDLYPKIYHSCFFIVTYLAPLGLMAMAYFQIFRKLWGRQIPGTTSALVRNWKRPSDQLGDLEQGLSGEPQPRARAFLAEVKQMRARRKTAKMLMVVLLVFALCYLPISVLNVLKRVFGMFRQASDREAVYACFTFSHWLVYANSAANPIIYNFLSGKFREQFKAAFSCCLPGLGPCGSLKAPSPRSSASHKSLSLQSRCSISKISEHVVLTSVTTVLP
Briefly: Orexin receptor cell-based functional assay, [Ca2+]i by FLIPR, CHO-OX1 cells. The following applies: CHO-OX1 cells, [Ca2+]i by FLIPR, antagonist dose-range 0.1 nM-10 μM, EC90 of OXA; read-out: OX1. In a few lines: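 CHO cells expressing human OX1 or OX2 loaded with calcium dye plus 2.5 mM probenecid at 37° C (calcium4, 30 min, or calcium6, 2 h), then exposed to compounds (0.1 nM-10 μM) for 30 min. Intracellular Ca2+ measured on FLIPR; antagonist format.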

The inhibition is the share of the control response that was lost under treatment. Read a low inhibition as little suppression.

T2 sequence (P08684 whole entry): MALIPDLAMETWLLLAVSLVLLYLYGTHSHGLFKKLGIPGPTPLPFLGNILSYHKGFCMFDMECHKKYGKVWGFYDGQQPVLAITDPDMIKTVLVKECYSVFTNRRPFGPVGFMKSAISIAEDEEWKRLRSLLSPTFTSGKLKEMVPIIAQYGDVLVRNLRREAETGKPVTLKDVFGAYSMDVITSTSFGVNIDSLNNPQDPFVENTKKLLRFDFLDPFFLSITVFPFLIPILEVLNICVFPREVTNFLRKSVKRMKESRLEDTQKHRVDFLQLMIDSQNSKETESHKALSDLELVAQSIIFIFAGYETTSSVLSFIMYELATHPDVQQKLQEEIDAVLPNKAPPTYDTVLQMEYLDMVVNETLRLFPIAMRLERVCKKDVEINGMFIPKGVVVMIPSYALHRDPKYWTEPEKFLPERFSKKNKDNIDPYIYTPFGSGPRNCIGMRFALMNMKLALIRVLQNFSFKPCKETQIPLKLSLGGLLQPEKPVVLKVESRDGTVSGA

As to `Cc1ccc(-n2nccn2)c(C(=O)N2CCC[C@@H](C)[C@H]2COc2ccc(C(F)(F)F)cn2)c1` [Example A106], the IC50 worked out at 2.3 µM on OX2 and 0.007 µM on OX1. Further, on CYP3A4, at 10 µM the inhibition was 54%.

Take `Cc1ccc(-n2nccn2)c(C(=O)N2CCC[C@@H](C)[C@H]2CNc2ncc(Cl)cc2F)n1` [Example A192, ((2S,3R)-2-(((5-Chloro-3-fluoropyridin-2-yl)amino)methyl)-3-methylpiperidin-1-yl)(6-methyl-3-(2H-1,2,3-triazol-2-yl)pyridin-2-yl)methanone]: the IC50 is over 5 µM on OX2 and 0.01 µM at OX1. Testing at 10 µM on CYP3A4 gave an inhibition of 51%.

With `C[C@@H]1CCCN(C(=O)c2ccc(F)cc2-c2ncccn2)[C@@H]1CNc1ncc(C(F)(F)F)cn1` [Example A235, (4-Fluoro-2-(pyrimidin-2-yl)phenyl)((2S,3R)-3-methyl-2-(((5-(trifluoromethyl)pyrimidin-2-yl)amino)methyl)piperidin-1-yl)methanone], the results for the IC50 on OX2 and on OX1 were 2.4 µM and 0.012 µM, respectively.

As to `Cc1cccc(-n2nccn2)c1C(=O)N1CCC[C@@H](C)[C@H]1CNc1ncc(C(F)(F)F)cn1` [Example A264, ((2S,3R)-3-Methyl-2-(((5-(trifluoromethyl)pyrimidin-2-yl)amino)methyl)piperidin-1-yl)(2-methyl-6-(2H-1,2,3-triazol-2-yl)phenyl)methanone], the IC50 at OX2 was over 5 µM; at OX1 it was 0.023 µM.

For `Cc1cccc(-n2nccn2)c1C(=O)N1CCC[C@@H](C)[C@H]1CNc1ccc(C(F)(F)F)cn1` [Example A265, ((2S,3R)-3-Methyl-2-(((5-(trifluoromethyl)pyridin-2-yl)amino)methyl)piperidin-1-yl)(2-methyl-6-(2H-1,2,3-triazol-2-yl)phenyl)methanone], the IC50 on OX2 was over 5 µM; at OX1, 0.008 µM.

Take `Cc1ccc(C(=O)N2CCC[C@@H](C)[C@H]2CNc2ccc(C(F)(F)F)cn2)c(-c2ncccn2)c1` [Example A305, ((2S,3R)-3-Methyl-2-(((5-(trifluoromethyl)pyridin-2-yl)amino)methyl)piperidin-1-yl)(4-methyl-2-(pyrimidin-2-yl)phenyl)methanone]: the figures for the IC50 on OX2 and on OX1 were over 5 µM and 0.009 µM, respectively.

Turning to `Cc1ccc(-c2ncccn2)c(C(=O)N2CCC[C@@H](C)[C@H]2CNc2ccc(C(F)(F)F)cn2)c1F` [Example A320, (2-Fluoro-3-methyl-6-(pyrimidin-2-yl)phenyl)((2S,3R)-3-methyl-2-(((5-(trifluoromethyl)pyridin-2-yl)amino)methyl)piperidin-1-yl)methanone], the results for the IC50 on OX2 and on OX1 were 1.4 µM and 0.002 µM, respectively.

Take `Cc1ccc(-c2ncccn2)c(C(=O)N2CCC[C@@H](C)[C@H]2CNc2ncc(C(F)(F)F)cn2)c1F` [Example A321]: the IC50 on OX2 is over 5 µM; at OX1 it was 0.008 µM.

`Cc1ccc(C(=O)N2CCC[C@@H](C)[C@H]2CNc2ncc(C(F)(F)F)cn2)c(-c2ncccn2)c1` [Example A340, ((2S,3R)-3-Methyl-2-(((5-(trifluoromethyl)pyrimidin-2-yl)amino)methyl)piperidin-1-yl)(4-methyl-2-(pyrimidin-2-yl)phenyl)methanone]: the values for the IC50 at OX2 and on OX1 were over 5 µM and 0.002 µM, respectively.

Take `Cc1c(F)ccc(C(=O)N2CCC[C@@H](C)[C@H]2CNc2ccc(C(F)(F)F)cn2)c1-c1ncccn1` [Example A346, (4-fluoro-3-methyl-2-(pyrimidin-2-yl)phenyl)((2S,3R)-3-methyl-2-(((5-(trifluoromethyl)pyridin-2-yl)amino)methyl)piperidin-1-yl)methanone]: on OX2, the IC50 was 4.2 µM. This compound had an inhibition at 10 µM at CYP3A4 of 62%.

For `Cc1ccc(F)c(C(=O)N2CCC[C@@H](C)[C@H]2CNc2ccc(C(F)(F)F)cn2)c1-n1nccn1` [Example A352, (6-Fluoro-3-methyl-2-(2H-1,2,3-triazol-2-yl)phenyl)((2S,3R)-3-methyl-2-(((5-(trifluoromethyl)pyridin-2-yl)amino)methyl)piperidin-1-yl)methanone], the values for the IC50 at OX2 and on OX1 were 1.5 µM and 0.004 µM, respectively.

As to `Cc1ccc(F)c(C(=O)N2CCC[C@@H](C)[C@H]2CNc2ncc(C(F)(F)F)cn2)c1-n1nccn1` [Example A353, (6-fluoro-3-methyl-2-(2H-1,2,3-triazol-2-yl)phenyl)((2S,3R)-3-methyl-2-(((5-(trifluoromethyl)pyrimidin-2-yl)amino)methyl)piperidin-1-yl)methanone], the IC50 on OX2 was over 5 µM; on OX1 it was 0.004 µM.

With `Cc1ccc(F)c(C(=O)N2CCC[C@@H](C)[C@H]2CNc2ncc(C(F)(F)F)cn2)c1-c1ncccn1` [Example A355, (6-fluoro-3-methyl-2-(pyrimidin-2-yl)phenyl)((2S,3R)-3-methyl-2-(((5-(trifluoromethyl)pyrimidin-2-yl)amino)methyl)piperidin-1-yl)methanone], on OX2, the IC50 stood at 0.87 µM. Moreover, the inhibition at 10 µM at CYP3A4 is 25%.

Turning to `Cc1cc(-n2nccn2)c(C(=O)N2CCC[C@@H](C)[C@H]2CNc2ncc(C(F)(F)F)cn2)cc1F` [Example A361, (5-fluoro-4-methyl-2-(2H-1,2,3-triazol-2-yl)phenyl)((2S,3R)-3-methyl-2-(((5-(trifluoromethyl)pyrimidin-2-yl)amino)methyl)piperidin-1-yl)methanone], the IC50 was over 5 µM at OX2 and 0.004 µM on OX1.

For `Cc1c(F)ccc(-n2nccn2)c1C(=O)N1CCC[C@@H](C)[C@H]1CNc1ncc(C(F)(F)F)cn1` [Example A385, (3-fluoro-2-methyl-6-(2H-1,2,3-triazol-2-yl)phenyl)((2S,3R)-3-methyl-2-(((5-(trifluoromethyl)pyrimidin-2-yl)amino)methyl)piperidin-1-yl)methanone], the results for the IC50 on OX2 and on OX1 were over 5 µM and 0.024 µM, respectively.

Regarding `Cc1c(F)ccc(-c2ncccn2)c1C(=O)N1CCC[C@@H](C)[C@H]1CNc1ccc(C(F)(F)F)cn1` [Example A386, (3-fluoro-2-methyl-6-(pyrimidin-2-yl)phenyl)((2S,3R)-3-methyl-2-(((5-(trifluoromethyl)pyridin-2-yl)amino)methyl)piperidin-1-yl)methanone], the IC50 at OX2 was over 5 µM; on OX1, 0.005 µM.

For the compound `Cc1c(F)ccc(-c2ncccn2)c1C(=O)N1CCC[C@@H](C)[C@H]1CNc1ncc(C(F)(F)F)cn1` [Example A387, (3-fluoro-2-methyl-6-(pyrimidin-2-yl)phenyl)((2S,3R)-3-methyl-2-(((5-(trifluoromethyl)pyrimidin-2-yl)amino)methyl)piperidin-1-yl)methanone], the IC50 at OX2 is over 5 µM; on OX1 it was 0.03 µM.

For `C[C@@H]1CCCN(C(=O)c2c(-c3ncccn3)ccc(F)c2F)[C@@H]1CNc1ccc(C(F)(F)F)cn1` [Example A388, (2,3-Difluoro-6-(pyrimidin-2-yl)phenyl)((2S,3R)-3-methyl-2-(((5-(trifluoromethyl)pyridin-2-yl)amino)methyl)piperidin-1-yl)methanone], the IC50 at OX2 is over 5 µM; on OX1, 0.004 µM.
